Source: ChEMBL document CHEMBL1136689, “Inhibition of telomerase by BIBR 1532 and related analogues” (Bioorg Med Chem Lett, 2003)

What was measured:
[1] = molecular target: T1, Telomerase reverse transcriptase (Homo sapiens, UniProt O14746); assay: Inhibitory activity against telomerase; ND: Not detected concentrations as high as 50 uM
[2] = molecular target: T1, Telomerase reverse transcriptase; assay: Inhibitory activity against telomerase; ND: not detected concentrations as high as 50 uM
[3] = molecular target: T1, Telomerase reverse transcriptase; assay: Inhibitory activity against telomerase

T1 sequence (O14746 whole entry): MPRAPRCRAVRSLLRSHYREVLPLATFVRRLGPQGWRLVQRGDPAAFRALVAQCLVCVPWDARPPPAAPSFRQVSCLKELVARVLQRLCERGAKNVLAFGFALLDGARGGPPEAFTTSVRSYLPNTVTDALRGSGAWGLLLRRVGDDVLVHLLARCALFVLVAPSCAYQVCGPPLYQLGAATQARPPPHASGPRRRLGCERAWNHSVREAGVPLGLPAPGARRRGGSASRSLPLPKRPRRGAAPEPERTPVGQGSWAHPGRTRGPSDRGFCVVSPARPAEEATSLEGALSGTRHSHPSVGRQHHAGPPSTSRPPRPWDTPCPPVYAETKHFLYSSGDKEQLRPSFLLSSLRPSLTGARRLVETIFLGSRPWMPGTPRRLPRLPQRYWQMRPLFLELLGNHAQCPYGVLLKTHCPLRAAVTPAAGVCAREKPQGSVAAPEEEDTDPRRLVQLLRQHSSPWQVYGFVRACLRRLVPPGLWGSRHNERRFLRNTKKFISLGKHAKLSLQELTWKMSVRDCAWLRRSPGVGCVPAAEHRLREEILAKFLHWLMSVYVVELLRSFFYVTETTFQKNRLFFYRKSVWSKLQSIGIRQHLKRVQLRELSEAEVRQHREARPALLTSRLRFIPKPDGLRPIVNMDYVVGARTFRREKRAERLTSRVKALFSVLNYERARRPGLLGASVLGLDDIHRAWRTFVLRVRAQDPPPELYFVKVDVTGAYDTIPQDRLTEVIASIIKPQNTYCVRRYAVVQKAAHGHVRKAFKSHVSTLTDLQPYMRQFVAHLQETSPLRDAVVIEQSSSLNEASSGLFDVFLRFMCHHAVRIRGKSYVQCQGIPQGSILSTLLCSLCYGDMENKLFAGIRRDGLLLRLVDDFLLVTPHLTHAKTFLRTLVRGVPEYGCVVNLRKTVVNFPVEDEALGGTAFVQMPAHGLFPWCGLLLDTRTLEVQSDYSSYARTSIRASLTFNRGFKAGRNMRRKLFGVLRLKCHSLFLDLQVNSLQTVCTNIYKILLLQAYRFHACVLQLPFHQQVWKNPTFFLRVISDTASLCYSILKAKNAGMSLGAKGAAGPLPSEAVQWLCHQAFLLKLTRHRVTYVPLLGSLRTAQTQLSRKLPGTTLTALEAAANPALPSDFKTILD

| IC50 [1] | SMILES | other results |
| --- | --- | --- |
| Inhibition not detected | C/C(=C(/Cl)C(=O)Nc1ccccc1C(=O)O)c1ccc2ccccc2c1 |  |
|  | CC(/C=C(\Cl)C(=O)Nc1ccccc1C(=O)O)c1ccccc1 (configuration not stated) | IC50 [2]: Inhibition not detected |
|  | C/C(=C\C(=O)Nc1ccccc1C(=O)O)c1ccc2ccccc2c1 | IC50 [3]: 5 µM |
| Inhibition not detected | COc1cc(CCC(=O)Nc2ccccc2C(=O)O)ccc1O |  |
| Inhibition not detected | COc1cc(/C=C(\Cl)C(=O)Nc2ccccc2C(=O)O)ccc1OCc1ccccc1 |  |
| Inhibition not detected | CC(CC(=O)Nc1ccccc1C(=O)O)c1ccc2ccccc2c1 (configuration not stated) |  |
|  | C/C(=C/C(=O)Nc1ccccc1C(=O)O)c1ccc2ccccc2c1 | IC50 [3]: 5 µM |
